From patent US4064132A, “Aroyl-substituted phenylacetamide derivatives” (Janssen Pharmaceutica N.V., priority 1976, dated 1977)
Like-named read-outs stand apart in the source and are kept apart here.

Assays:
[1] = test system: mycobacterium butyricum induced arthritis; experiment: mycobacterium butyricum induced arthritis test in rats; assay type: in vivo, male Wistar rats; conditions: for minimal effective dose: Rattus norvegicus, po, 336 h, 14 consecutive days; for Potency Ratio: arthritis test, compound A vs compound B
Method: According to the mycobacterium butyricum induced arthritis test, male Wistar rats (body weight 235±15g) are injected intradermally in the tail base with 0.05 ml of an oily suspension of mycobacterium butyricum. The paws and the joint diameters of the hind limbs are measured the day of the injection and a fortnight later. Rats with established arthritis, i.e., significant increase in paw and joint diameters are used for drug testing. Groups of three individually caged animals receive the drug under investigation mixed with the powdered food at different concentrations during 14 consecutive days. After this treatment period, the diameters of the hind limbs are measured again and the effect of drug treatment is evaluated by comparing the final swelling degrees of treated animals with that occurring in untreated controls. The lowest effective dose is that dose whereby a significant decrease of the swelling is observed as compared to untreated control animals.

[2] = test system: acetic acid induced writhing; experiment: HOAc (acetic acid) induced writhing test in rats; assay type: in vivo, female Wistar rats; conditions: for ED50: Rattus norvegicus, po; for Potency Ratio: writhing test, compound A vs compound B
Method: According to the acetic acid induced writhing test, female Wistar rats (body weight 100±5g) are fasted overnight and injected intraperitoneally with 0.5 ml of a 1% acetic acid solution. Rats with at least 10 writhes within the first 10 minutes following the acetic acid injection are selected and treated five minutes later with an oral dose of the compound under investigation or with the vehicle (control). The number of writhes, i.e. the backward extension of the hind limbs, are counted during a 15 minute experimental session 45 to 60 minutes after the oral treatment. A minimum of three rats are used for each dose level tested.

[3] = mixed with the powdered food, significant decrease of swelling vs untreated controls, table 2, read-out: Lowest Effective Dose
[4] = all-or-none basis of less than 15 writhes per animal per session, table 1, read-out: Oral ED50 (lowest effective oral dose expressed as ED50)
[5] = drug in food, table 3, read-out: Mycobacterium butyricum test effective dose
[6] = table 3, read-out: Writhing test in rats, ED50

Structure (SMILES) | minimal effective dose [1, 5] [mg/kg] | ED50 [2, 6] [mg/kg] | also measured
CC(C(=O)O)c1ccc(C(=O)c2ccccc2)cc1 (stereo not drawn) [B, p-benzoyl-α-methylphenylacetic acid, reference compound] |  |  | minimal effective dose [1, 3]: 10 mg/kg; Potency Ratio ([1]; table 2): 1/16; ED50 [2, 4]: 1.25 mg/kg; Potency Ratio ([2]; table 1): 1/16
CCN(CC)CCOC(=O)C(C)c1ccc(C(=O)c2cccs2)cc1.Cl (centres unmarked) [p-(2-thenoyl) H H Me H O(CH2)2N(Et)2, 2-(diethylamino)ethyl p-(2-thenoyl)hydratropate hydrochloride] | 2.5 | 0.04 | 
CC(C(=O)O)c1ccc(C(=O)c2cccnc2)cc1.Cl (centres unmarked) [p-(3-pyridylcarbonyl) H H Me H OH, p-(3-pyridylcarbonyl)hydratropic acid hydrochloride] | 2.5 | 2.5 | 
CCOC(=O)C(C)c1ccc(C(=O)c2cccs2)cc1 (centres unmarked) [p-(2-thenoyl) H H Me H OEt, ethyl p-(2-thenoyl)hydratropate] |  | 0.31 | 
CC(C(=O)OCCCN(C)C)c1ccc(C(=O)c2cccs2)cc1.O=C(O)C(=O)O (centres unmarked) [p-(2-thenoyl) H H Me H O(CH2)3N(Me)2, 3-(dimethylamino)propylp-(2-thenoyl)hydratropate oxalate] | 2.5 | 0.16 | 
CC(C(=O)O)c1ccc(C(=O)c2cccs2)cc1 (single isomer, unassigned; (-)) [p-(2-thenoyl) (-) H H Me H OH, (-)-p-(2-thenoyl)hydratropic acid] |  |  | Writhing test in rats; ED50 ([2]; oral, table 3): 5.0 mg/kg
Cc1cc(C(C)C(=O)O)ccc1C(=O)c1cccs1 (centres unmarked) [p-(2-thenoyl) Me H Me H OH, 3-methyl-4-(2-thenoyl)hydratropic acid] | 10 | 5 | 
CC(C(=O)O)c1ccc(C(=O)c2cccs2)cc1 (single isomer, unassigned; (+)) [p-(2-thenoyl) (+) H H Me H OH, (+)-p-(2-thenoyl)hydratropic acid] | ≤ 2.5 |  | Writhing test in rats; ED50 ([2]; oral, table 3): 0.31 mg/kg
Cc1ccc(C(=O)c2ccc(C(C)C(=O)O)cc2)s1 (centres unmarked) [p-(5-Me-2-thenoyl) H H Me H OH, p-(5-methyl-2-thenoyl)hydratropic acid] | 5 | 1.25 | 
CC(C(=O)O)c1ccc(C(=O)c2ccc3ccccc3c2)cc1 (centres unmarked) [p-(2-naphtoyl) H H Me H OH, p-(2-naphthoyl)hydratropic acid] | 10 | 1.25 | 
COc1ccc(NC(=O)C(C)c2ccc(C(=O)c3cccs3)cc2)cc1 (centres unmarked) [p-(2-thenoyl) H H Me H drawing 30] | < 10 | 10 | 
CCC(C(=O)O)c1ccc(C(=O)c2cccs2)cc1 (centres unmarked) [p-(2-thenoyl) H H Et H OH, 2-[p-(2-thenoyl)phenyl]butyric acid] |  | 0.63 | 
CC(C(=O)NO)c1ccc(C(=O)c2cccs2)cc1 (centres unmarked) [p-(2-thenoyl) H H Me H NHOH, p-(2-thenoyl)hydratropohydroxamic acid] |  | 1.25 | 
CCCCCCCCOC(=O)C(C)c1ccc(C(=O)c2cccs2)cc1 (centres unmarked) [p-(2-thenoyl) H H Me H OOct, octyl p-(2-thenoyl)hydratropate] |  | 0.63 | 
CC(C(=O)O)c1ccc(C(=O)c2ccc(Cl)s2)cc1 (centres unmarked) [p-(5-chloro-2-thenoyl) H H Me H OH, p-(5-chloro-2-thenoyl)hydratropic acid] | 5 | 0.63 | 
CC(C)(C(=O)O)c1ccc(C(=O)c2cccs2)cc1 [p-(2-thenoyl) H H Me Me OH, α-methyl-p-(2-thenoyl)hydratropic acid] | < 10 | 0.31 | 
Cc1c(CC(=O)O)cccc1C(=O)c1cccs1 [m-(2-thenoyl) H Me H H OH, 2-[3-(2-thenoyl)-o-tolyl]acetic acid] | 1.25 | 10 | 
CC(C(=O)O)c1cccc(C(=O)c2cccs2)c1 (centres unmarked) [m-(2-thenoyl) H H Me H OH, m-(2-thenoyl)hydratropic acid] |  | 1.25 | 
CC(C(=O)NC1=NCCS1)c1ccc(C(=O)c2cccs2)cc1 (centres unmarked) [p-(2-thenoyl) H H Me H drawing 31] | 10 | 2.5 | 
CC(C(=O)OCCN(C)C)c1ccc(C(=O)c2cccs2)cc1.O=C(O)C(=O)O (centres unmarked) [p-(2-thenoyl) H H Me H O(CH2)2N(Me)2, 2-(dimethylamino)ethyl p-(2-thenoyl)hydratropate oxalate] | 2.5 | 0.08 | 
CC(C(=O)O)c1ccc(C(=O)c2cccs2)c(Cl)c1 (centres unmarked) [p-(2-thenoyl) Cl H Me H OH, 3-chloro-4-(2-thenoyl)hydratropic acid] | 1.25 | 1.25 | 
CC(C(=O)O)c1ccc(C(=O)c2cccs2)cc1 (stereo not drawn) [A, p-(2-thenoyl)-α-methyl-phenylacetic acid] |  |  | antagonism of mycobacterium butyricum induced arthritis in rats (in words) [1]: powerful antagonist of mycobacterium butyricum induced arthritis in rats; minimal effective dose [1, 3]: 0.63 mg/kg; Potency Ratio ([1]; table 2): 1; times more active than compound B (arthritis) ([1]; drug in food, 14 days): at least 16 times; ED50 [2, 4]: 0.08 mg/kg; times more active than compound B (writhing) ([2]; oral): 16 times; Potency Ratio ([2]; table 1): 1
C=CCC(C(=O)O)c1ccc(C(=O)c2cccs2)cc1 (centres unmarked) [p-(2-thenoyl) H H allyl H OH, 2-[p-(2-thenoyl)phenyl]-4-pentenoic acid] | 10 | 1.25 | 
